Data taken from PubChem BioAssay AID330 (DTP/NCI, 2004).
Values joined by “and” are separate entries in the source; they are usually repeats but may differ in a detail not shown here. Equal values may be shown once. Toxic doses and inconclusive results are not listed. Peptide text beside a SMILES is read from it. * marks the point of attachment. Cbz = O=C(OCc1ccccc1)*; OtBu = CC(C)(C)O*

Tested on: P388 leukemia ip, CD2F1 mice, survival T/C
Experiment: NCI In Vivo Anticancer Drug Screen. Data for tumor model P388 Leukemia (intraperitoneal) in CD2F1 (CDF1) mice
Conditions: endpoint: median survival time, higher = longer survival
In short: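 Mice carrying the transplanted tumor received test compound or vehicle. Survival was recorded in each group, and the value is the treated-group measurement divided by that of the vehicle-treated control group.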

[1] = dose: 50.0 mg/kg/injection, schedule: Q01DX009 (ip), vehicle: saline with Tween-80
[2] = dose: 100.0 mg/kg/injection, schedule: Q01DX009 (ip), vehicle: saline with Tween-80
[3] = dose: 200.0 mg/kg/injection, schedule: Q01DX009 (ip), vehicle: saline with Tween-80
[4] = dose: 100.0 mg/kg/injection, schedule: Q01DX001 (ip), vehicle: Klucel (hydroxypropylcellulose) (HPC)
[5] = dose: 200.0 mg/kg/injection, schedule: Q01DX001 (ip), vehicle: Klucel (hydroxypropylcellulose) (HPC)
[6] = dose: 400.0 mg/kg/injection, schedule: Q01DX001 (ip), vehicle: Klucel (hydroxypropylcellulose) (HPC)
[7] = dose: 50.0 mg/kg/injection, schedule: Q01DX009 (ip), vehicle: Klucel (hydroxypropylcellulose) (HPC)
[8] = dose: 100.0 mg/kg/injection, schedule: Q01DX009 (ip), vehicle: Klucel (hydroxypropylcellulose) (HPC)
[9] = dose: 200.0 mg/kg/injection, schedule: Q01DX009 (ip), vehicle: Klucel (hydroxypropylcellulose) (HPC)
[10] = dose: 60.0 mg/kg/injection, schedule: Q01DX005 (ip), vehicle: Klucel (hydroxypropylcellulose) (HPC)
[11] = dose: 120.0 mg/kg/injection, schedule: Q01DX005 (ip), vehicle: Klucel (hydroxypropylcellulose) (HPC)
[12] = dose: 240.0 mg/kg/injection, schedule: Q01DX005 (ip), vehicle: Klucel (hydroxypropylcellulose) (HPC)
[13] = dose: 100.0 mg/kg/injection, schedule: Q04DX002 (ip), vehicle: saline with Tween-80
[14] = dose: 50.0 mg/kg/injection, schedule: Q01DX005 (ip), vehicle: saline with Tween-80
[15] = dose: 100.0 mg/kg/injection, schedule: Q01DX005 (ip), vehicle: saline with Tween-80
[16] = dose: 200.0 mg/kg/injection, schedule: Q01DX005 (ip), vehicle: saline with Tween-80
[17] = dose: 100.0 mg/kg/injection, schedule: Q04DX003 (ip), vehicle: saline with Tween-80
[18] = dose: 200.0 mg/kg/injection, schedule: Q04DX003 (ip), vehicle: saline with Tween-80
[19] = dose: 400.0 mg/kg/injection, schedule: Q04DX003 (ip), vehicle: saline with Tween-80

Compound: N#CC(C#N)=CNc1ccccc1
- T/C [1]: 100 % of control
- T/C [2]: 106 % of control
- T/C [3]: 104 % of control

Compound: CC(C)CC(C)(c1ccc(O)cc1)c1ccc(O)cc1
- T/C [2]: 105 % of control
- T/C [3]: 105 % of control

Compound: Nc1cc(N)c(Nc2ccccc2)cc1Nc1ccccc1
- T/C [4]: 99 % of control
- T/C [5]: 101 % of control
- T/C [6]: 97 % of control

Compound: COc1ccc(Cl)cc1C(=O)NCCc1ccc(CCC(=O)O)cc1
- T/C [7]: 99 % of control
- T/C [8]: 98 % of control
- T/C [9]: 102 % of control

Compound: CC(C)(C)N=C(CCN1CCN(CCC(=NC(C)(C)C)Nc2ccc(Cl)cc2)CC1)Nc1ccc(Cl)cc1
- T/C [7]: 87 % of control
- T/C [8]: 93 % of control
- T/C [9]: 96 % of control

Compound: Nc1nnc2nc(C(C(=O)c3ccccc3)c3nc4nnc(N)n4[nH]c3=O)c(=O)[nH]n12
- T/C (dose: 50.0 mg/kg/injection, schedule: Q01DX005 (ip), vehicle: saline): 102 % of control
- T/C (dose: 100.0 mg/kg/injection, schedule: Q01DX005 (ip), vehicle: saline): 96 % of control
- T/C (dose: 200.0 mg/kg/injection, schedule: Q01DX005 (ip), vehicle: saline): 97 % of control

Compound: CCN(CC)CCOc1ccc(C=Nc2ccc3c4ccccc4n(CC)c3c2)cc1
- T/C [4]: 100 % of control
- T/C [5]: 100 % of control
- T/C [6]: 99 % of control

Compound: C=CC12CCCCC1CCC(=O)C2 (configuration not stated)
- T/C [7]: 111 % of control

Compound: N#CC1C(=O)NC(=O)C(C#N)C1c1ccc(Cl)cc1Cl (configuration not stated)
- T/C [7]: 96 % of control
- T/C [8]: 105 % of control
- T/C [9]: 107 % of control

Compound: CC(C)(N)COC(=O)c1ccccc1C(=O)O
- T/C (dose: 100.0 mg/kg/injection, schedule: Q01DX001 (ip), vehicle: saline): 90 % of control
- T/C (dose: 200.0 mg/kg/injection, schedule: Q01DX001 (ip), vehicle: saline): 95 % of control
- T/C (dose: 400.0 mg/kg/injection, schedule: Q01DX001 (ip), vehicle: saline): 104 % of control

Compound: NS(=O)(=O)c1ccc(Nc2c3ccccc3nc3ncccc23)cc1
- T/C (dose: 7.5 mg/kg/injection, schedule: Q01DX005 (ip), vehicle: saline with Tween-80): 92 % of control
- T/C (dose: 15.0 mg/kg/injection, schedule: Q01DX005 (ip), vehicle: saline with Tween-80): 91 % of control
- T/C (dose: 30.0 mg/kg/injection, schedule: Q01DX005 (ip), vehicle: saline with Tween-80): 92 % of control

Compound: COc1cccc2c(=O)c(COC(C)=O)c(C)[nH]c12
- T/C (dose: 60.0 mg/kg/injection, schedule: Q01DX005 (ip), vehicle: saline): 112 % of control
- T/C (dose: 120.0 mg/kg/injection, schedule: Q01DX005 (ip), vehicle: saline): 112 % of control
- T/C (dose: 240.0 mg/kg/injection, schedule: Q01DX005 (ip), vehicle: saline): 112 % of control

Compound: O=C(Nc1ncnc2nc(-c3ccccc3)[nH]c12)c1ccccc1
- T/C [10]: 107 % of control
- T/C [11]: 95 % of control
- T/C [12]: 95 % of control

Compound: O.O=C(O)CN(CCN(CC(=O)O)CC(=O)O)CC(=O)O.[Rh+2]
- T/C (dose: 100.0 mg/kg/injection, schedule: Q01DX009 (ip), vehicle: saline sonified): 90 % of control
- T/C (dose: 200.0 mg/kg/injection, schedule: Q01DX009 (ip), vehicle: saline sonified): 90 % of control
- T/C (dose: 400.0 mg/kg/injection, schedule: Q01DX009 (ip), vehicle: saline sonified): 95 % of control

Compound: COC(=O)C1(c2ccccc2)N=C1N(C)C (configuration not stated)
- T/C [13]: 94 % of control
- T/C (dose: 200.0 mg/kg/injection, schedule: Q04DX002 (ip), vehicle: saline with Tween-80): 94 % of control
- T/C (dose: 400.0 mg/kg/injection, schedule: Q04DX002 (ip), vehicle: saline with Tween-80): 102 % of control

Compound: O=c1ccc2ccc(OC3OC(CO)C(O)C(O)C3O)cc2o1 (configuration not stated)
- T/C (dose: 1.0 mg/kg/injection, schedule: Q01DX009 (ip), vehicle: saline with Tween-80): 106 % of control
- T/C (dose: 2.0 mg/kg/injection, schedule: Q01DX009 (ip), vehicle: saline with Tween-80): 100 % of control
- T/C (dose: 4.0 mg/kg/injection, schedule: Q01DX009 (ip), vehicle: saline with Tween-80): 104 % of control

Compound: COc1cc(C/C(=C\c2cc(OC)c(OC)c(OC)c2)[N+](=O)[O-])ccc1OCc1ccccc1
- T/C (dose: 50.0 mg/kg/injection, schedule: Q01DX001 (ip), vehicle: Klucel (hydroxypropylcellulose) (HPC)): 93 % of control
- T/C [4]: 94 % of control

Compound: Cc1ccc(NC(=O)Oc2ccc(C#N)cc2)cc1Cl
- T/C [10]: 118 % of control
- T/C [11]: 111 % of control
- T/C [12]: 118 % of control

Compound: O=C(O)CCCC(=O)c1ccc2ccccc2c1
- T/C [1]: 98 % of control
- T/C [2]: 98 % of control
- T/C [3]: 99 % of control

Compound: O=C(O)/C(Cl)=C(Cl)\C=N\Nc1ccccc1
- T/C (dose: 25.0 mg/kg/injection, schedule: Q04DX002 (ip), vehicle: saline with Tween-80): 100 % of control
- T/C (dose: 50.0 mg/kg/injection, schedule: Q04DX002 (ip), vehicle: saline with Tween-80): 102 % of control
- T/C [13]: 100 % of control

Compound: CCN=Cc1c(O)c(O)c(C(C)C)c2cc(C)c(-c3c(C)cc4c(C(C)C)c(O)c(O)c(C=NCC)c4c3O)c(O)c12
- T/C [14]: 86 % of control
- T/C [15]: 86 % of control
- T/C [16]: 104 % of control

Compound: CCOC(=O)/N=C1\SC2(CC(C)=C(C)CS2=O)C(O)=C1C(=O)OCC (configuration not stated)
- T/C (dose: 60.0 mg/kg/injection, schedule: Q01DX005 (ip), vehicle: saline with Tween-80): 101 % of control
- T/C (dose: 120.0 mg/kg/injection, schedule: Q01DX005 (ip), vehicle: saline with Tween-80): 100 % of control
- T/C (dose: 240.0 mg/kg/injection, schedule: Q01DX005 (ip), vehicle: saline with Tween-80): 101 % of control

Compound: O=[N+]([O-])c1ccc(Cl)nc1
- T/C (dose: 22.0 mg/kg/injection, schedule: Q01DX009 (ip), vehicle: saline with Tween-80): 103 % of control
- T/C (dose: 33.0 mg/kg/injection, schedule: Q01DX009 (ip), vehicle: saline with Tween-80): 97 % of control
- T/C [1]: 91 % of control
- T/C (dose: 75.0 mg/kg/injection, schedule: Q01DX009 (ip), vehicle: saline with Tween-80): 99 % of control
- T/C (dose: 100.0 mg/kg/injection, schedule: Q04DX003 (ip), vehicle: saline sonified): 100 % of control
- T/C (dose: 200.0 mg/kg/injection, schedule: Q04DX003 (ip), vehicle: saline sonified): 95 % of control
- T/C (dose: 400.0 mg/kg/injection, schedule: Q04DX003 (ip), vehicle: saline sonified): 90 % of control

Compound: C1=C(c2ccccc2)N=C(c2nncc3ccccc23)C1(c1ccccc1)c1ccccc1
- T/C [17]: 101 % of control
- T/C [18]: 101 % of control
- T/C [19]: 96 % of control

Compound: COc1ccc2nc(N/N=C/c3cccc(C)n3)cc(C)c2c1
- T/C (dose: 12.5 mg/kg/injection, schedule: Q01DX005 (ip), vehicle: saline with Tween-80): 100 % of control
- T/C (dose: 25.0 mg/kg/injection, schedule: Q01DX005 (ip), vehicle: saline with Tween-80): 96 % of control
- T/C [14]: 94 % of control and 95 % of control
- T/C [15]: 114 % of control
- T/C [16]: 116 % of control

Compound: CCOC(=O)NC(NC(=O)OCC)c1ccccc1
- T/C (dose: 100.0 mg/kg/injection, schedule: Q04DX003 (ip), vehicle: saline): 100 % of control
- T/C (dose: 200.0 mg/kg/injection, schedule: Q04DX003 (ip), vehicle: saline): 98 % of control
- T/C (dose: 400.0 mg/kg/injection, schedule: Q04DX003 (ip), vehicle: saline): 92 % of control

Compound: CSc1nc(Cl)c(Br)c(Sc2nc(N)nc3nc[nH]c23)n1
- T/C [1]: 122 % of control
- T/C [2]: 109 % of control
- T/C [17]: 118 % of control
- T/C [18]: 150 % of control

Compound: COC(=O)C(CCC(=O)OC(C)(C)C)NC(=O)C(NC(=O)OCc1ccccc1)C(C)C (stereo not drawn) (Cbz-Val-Glu(OtBu)-OMe; configuration not given here)
- T/C [17]: 110 % of control
- T/C [18]: 120 % of control
- T/C [19]: 90 % of control
